Source: patent US20210038537A1, “Emodin for Use in Regulating Expression of Proteins Involved in Inflammation” (UNIVERSITY OF SOUTH CAROLINA, priority 2018, published 2021)

Legend:
[1] = system: F4/80+ cells (macrophages) in MC38 colon tumors; experiment: Macrophage infiltration into MC38 colon tumors by flow cytometry; type: in vivo, mouse; conditions: emodin 40 mg/Kg 3 times a week for 4 weeks, tumors of similar sizes
Description: To test the effects of emodin on TAMs in colorectal cancer, macrophage infiltration into MC38 colon tumors following control or emodin (40 mg/Kg) treatment (3 times a week for 4 weeks) was examined using flow cytometry. Tumors of similar sizes were selected so that emodin effects could be determined independent of any changes in tumor size.

[2] = system: pro-tumor markers (Hif1a, IL-10, IL-6 and MCP-1); experiment: Pro-tumor marker expression in MC38 tumors; type: in vivo, mouse; conditions: emodin 40 mg/Kg
Description: To test the effects of emodin on TAMs in colorectal cancer, macrophage infiltration into MC38 colon tumors following control or emodin (40 mg/Kg) treatment (3 times a week for 4 weeks) was examined using flow cytometry. Tumors of similar sizes were selected so that emodin effects could be determined independent of any changes in tumor size. […] The effects of emodin on select pro-tumor markers (Hif1a, IL-10, IL-6 and MCP-1) in a tumor was also examined.

[3] = system: azoxymethane (AOM)/dextran sodium sulfate (DSS) mouse model of colorectal cancer; experiment: AOM/DSS mouse model of colorectal cancer, tumor number; type: in vivo; conditions: emodin 40 mg/Kg via gavage three days a week for 10 weeks; vehicle approximately 7 tumors
Description: Effects of dietary emodin on tumorigenesis were examined in an azoxymethane (AOM)/dextran sodium sulfate (DSS) mouse model of colorectal cancer. Colorectal cancer was developed in mice according to known methods. Briefly, mice received a single injection of AOM (10 mg/Kg) followed by 2 cycles of DSS (2% in the water for 1 week followed by 2 weeks of plain water) as previously described (see, e.g., Tanaka T. Colorectal carcinogenesis: Review of human and experimental animal studies. J Carcinog 2009; 8:5; Enos R T, Velazquez K T, McClellan J L, et al. High-fat diets rich in saturated fat protect against azoxymethane/dextran sulfate sodium-induced colon cancer. American journal of physiology Gastrointestinal and liver physiology 2016; 310:G906-19).
The mice were administered either emodin or vehicle treatment (n=12) via gavage at a dose of 40 mg/Kg three days a week for the duration of the AOM/DSS protocol (10 weeks).

[4] = system: 5FU toxicity; experiment: Functional measures and survival following 5FU administration in a non-disease model; type: in vivo, C57BL/6 mice
Description: Given the positive effects of emodin on inflammation associated with 5FU toxicity, use of emodin was further examined to determine any improvement in quality of life measures with emodin/5FU treatment vs. 5FU treatment alone. The effects of emodin on functional measures and survival following 5FU administration were examined in a non-disease model.
C57BL/6 mice were assigned to either emodin (40 mg/kg 3×per week; n=9) or vehicle treatment (n=10). 5FU was administered at 40 mg/kg in cycle 1 and 20 mg/kg in cycles 2 and 3. Emodin was administered 3 times per week for the duration of the 5FU treatment.
Following the final 5FU cycle, mice underwent a mechanical stimulation test and a run to fatigue.

[5] = system: MCP-1, TNFα, and NOS2 expression; experiment: 5FU-induced colon inflammation, inflammatory gene expression by qPCR in a non-disease model; type: in vivo, C57BL/6 mice; conditions: 5FU 3 cycles (40 then 20 mg/Kg) plus emodin 40 mg/Kg 3 times per week; vs 5FU plus vehicle
Description: FIG. 6 illustrates the inhibition of 5FU-induced colon inflammation. 5FU treated mice were administered emodin (40 mg/kg 3×wk) or vehicle treatment (n=5). A non-disease phosphate buffer saline (PBS) group was used as a control (n=5). Following 5FU treatment inflammatory mediators were analyzed in the colon via q PCR. *p<0.05.
The effects of dietary emodin on colon inflammation following 5FU administration were examined in a non-disease model. C57BL/6 mice were assigned to either emodin or control treatment (n=5). […] 5FU or PBS was administered daily for 5-days followed by a 9-day recovery (×3 cycles). The dose of 5FU was 40 mg/Kg in cycle 1 and 20 mg/Kg in cycles 2 and 3. Emodin (40 mg/Kg) was administered 3 times per week for the duration of the 5FU treatment.
Given the role of inflammation in chemotherapy-induced toxicity, an analysis of inflammatory genes from the intestines was performed.

[6] = system: Apc^min/+ model of intestinal tumorigenesis; experiment: Apc^min/+ model of intestinal tumorigenesis, polyp number; type: in vivo, mouse; conditions: emodin 40 mg/Kg via gavage three days a week for 12 weeks; vehicle approximately 75 polyps
Description: The Apc^min/+ model of intestinal tumorigenesis was utilized to test anti-tumor effects of emodin. Mice were administered emodin or vehicle treatment (n=7/group) via gavage at a dose of 40 mg/Kg three days a week for 12 weeks. Results are illustrated in FIG. 2. As indicated, the vehicle treated group had approximately 75 polyps per mouse, whereas emodin treated mice had less than 40 polyps per mouse.

[7] = system: MC38 tumors; experiment: MC38 mouse model of adenocarcinoma, tumor weight; type: in vivo; conditions: emodin 40 mg/Kg via gavage three days a week for 4 weeks; vehicle approximately 1,200 mg
Description: The MC38 mouse model of adenocarcinoma was used. Mice (n=4/group) were administered emodin or vehicle treatment via gavage at a dose of 40 mg/Kg three days a week for 4 weeks. Following the 4-week treatment period tumors in the vehicle treated group weighed approximately 1,200 mg, whereas those in the emodin treated group weighed approximately 400 mg.

[8] = following the final 5FU cycle, emodin 40 mg/kg 3x per week

SMILES: Cc1cc(O)c2c(c1)C(=O)c1cc(O)cc(O)c1C2=O [emodin, Emodin]
- F4/80+ cells (macrophages) in colon tumors [1]: significantly reduce
- relative expression of Hif1a in tumor [2]: decrease in relative marker expression
- relative expression of IL-6 in tumor [2]: decrease in relative marker expression
- relative expression of IL-10 in tumor [2]: decrease in relative marker expression
- relative expression of MCP-1 in tumor [2]: decrease in relative marker expression
- number of tumors following the 10-week AOM/DSS protocol [3]: approximately 5 tumors
- body weight loss associated with 5FU treatment ([4]; 3 cycles of 5FU plus emodin 40 mg/kg 3x per week): prevented the body weight loss
- survival of the 5FU regime ([4]; 3 cycles of 5FU plus emodin 40 mg/kg 3x per week, vehicle group 50%): 100%
- 5FU induced fatigability (run to fatigue) [4, 8]: offset
- 5FU induced sensitivity to pain (mechanical stimulation test) [4, 8]: offset
- MCP-1 expression in colon/intestines after 5FU [5]: decrease
- NOS2 expression in colon/intestines after 5FU [5]: decrease
- TNFα expression in colon/intestines after 5FU [5]: decrease
- polyps per mouse [6]: less than 40 polyps per mouse
- tumor weight [7]: approximately 400 mg
